From patent US20020155443A1, “Metal binding DNA interactive compounds” (priority 2000, published 2002)
pIC50: −log10 of the molar value.

Columns and labels:
Type in all cases: cell-based
[1] = tested on: MDA-N; test: DTP Human Tumor Cell Line Screen, sulforhodamine B assay; settings: Breast Cancer, 48 h
Procedure: (§1) The growth inhibitory activity of propargylic sulfone 3.2 against a wide range of human cancer cell lines was determined calorimetrically with sulforhodamine B assay conducted by the National Cancer Institute of the National Institutes of Health.
(§2) The in vitro cytotoxicity of compounds 2.47, 2.48 and 3.2 were investigated using the DTP Human Tumor Cell Line Screen. The concept, rationale and history of development of the DTP Human Tumor Cell Line Screen were described by Boyd (1993;1997)^8.4, 8.6 and Boyd and Paull (1995)^8.5. Further technical details of the NCI screening procedures were described (Monks, et. al.)^8.2 as were the origins and processing of the cell lines (Alley, et. al., Shoemaker, et. al., Stinson, et. al.). Briefly, cell suspensions that were diluted according to the particular cell type and the expected target cell density (5000-40,000 cells per well based on cell growth characteristics) were added by pipet (100 μL) into 96-well microtiter plates. Inoculates were allowed a preincubation period of 24 h at 37° C. for stabilization. Dilutions at twice the intended test concentration were added at time zero in 100-μL aliquots to the microtiter plate wells. Usually, test compounds were evaluated at five 10-fold dilutions. In routine testing, the highest well concentration is 10E-4 M, but for the standard agents the highest well concentration used depended on the agent. Incubations lasted for 48 h in 5% CO2 atmosphere and 100% humidity. The cells were assayed by using the sulforhodamine B assay (Rubinstein, et. al., Skehan, et. al.). A plate reader was used to read the optical densities, and a microcomputer processed the optical densities into the special concentration parameters.

[2] = tested on: A-549/ATCC; test: as above; settings: 48 h
Procedure: as §1, §2

[3] = tested on: TK-10; test: as above; settings: Renal Cancer, 48 h
Procedure: as §1, §2

[4] = tested on: SNB-75; test: as above; settings: CNS Cancer, 48 h
Procedure: as §1, §2

[5] = tested on: LOX IMVI; test: as above; settings: Melanoma, 48 h
Procedure: as §1, §2

[6] = tested on: MCF7; test: as above; settings: Breast Cancer, 48 h
Procedure: as §1, §2

[7] = tested on: MOLT-4; test: as above; settings: Leukemia, 48 h
Procedure: as §1, §2

[8] = tested on: HS 578T; test: as above; settings: Breast Cancer, 48 h
Procedure: as §1, §2

[9] = tested on: SR; test: as above; settings: Leukemia, 48 h
Procedure: as §1, §2

[10] = tested on: OVCAR-5; test: as above; settings: Ovarian Cancer, 48 h
Procedure: as §1, §2

[11] = tested on: EKVX; test: as above; settings: Non-Small Cell Lung Cancer, 48 h
Procedure: as §1, §2

[12] = tested on: OVCAR-3; test: as above; settings: Ovarian Cancer, 48 h
Procedure: as §1, §2

[13] = tested on: SW-620; test: as above; settings: Colon Cancer, 48 h
Procedure: as §1, §2

[14] = tested on: MDA-MB-231/ATCC; test: as above; settings: Breast Cancer, 48 h
Procedure: as §1, §2

[15] = tested on: CAKI-1; test: as above; settings: Renal Cancer, 48 h
Procedure: as §1, §2

[16] = tested on: 786-0; test: as above; settings: Renal Cancer, 48 h
Procedure: as §1, §2

[17] = tested on: SK-MEL-2; test: as above; settings: Melanoma, 48 h
Procedure: as §1, §2

[18] = tested on: PC-3; test: as above; settings: Prostate Cancer, 48 h
Procedure: as §1, §2

[19] = tested on: KM12; test: as above; settings: Colon Cancer, 48 h
Procedure: as §1, §2

[20] = tested on: HCT-116; test: as above; settings: Colon Cancer, 48 h
Procedure: as §1, §2

[21] = tested on: RXF 393; test: as above; settings: Renal Cancer, 48 h
Procedure: as §1, §2

[22] = tested on: NCI-H322M; test: as above; settings: Non-Small Cell Lung Cancer, 48 h
Procedure: as §1, §2

[23] = tested on: ACHN; test: as above; settings: Renal Cancer, 48 h
Procedure: as §1, §2

[24] = tested on: OVCAR-4; test: as above; settings: Ovarian Cancer, 48 h
Procedure: as §1, §2

[25] = tested on: HOP-92; test: as above; settings: Non-Small Cell Lung Cancer, 48 h
Procedure: as §1, §2

[26] = tested on: SK-OV-3; test: as above; settings: Ovarian Cancer, 48 h
Procedure: as §1, §2

[27] = tested on: HT29; test: as above; settings: 48 h
Procedure: as §1, §2

[28] = tested on: HOP-62; test: as above; settings: Non-Small Cell Lung Cancer, 48 h
Procedure: as §1, §2

[29] = tested on: HL-60 (TB); test: as above; settings: Leukemia, 48 h
Procedure: as §1, §2

[30] = tested on: U251; test: as above; settings: 48 h
Procedure: as §1, §2

[31] = tested on: SN12C; test: as above; settings: Renal Cancer, 48 h
Procedure: as §1, §2

[32] = tested on: SK-MEL-5; test: as above; settings: Melanoma, 48 h
Procedure: as §1, §2

[33] = tested on: K-562; test: as above; settings: 48 h
Procedure: as §1, §2

[34] = tested on: DU-145; test: as above; settings: Prostate Cancer, 48 h
Procedure: as §1, §2

[35] = tested on: HCT-15; test: as above; settings: Colon Cancer, 48 h
Procedure: as §1, §2

[36] = tested on: COLO 205; test: as above; settings: Colon Cancer, 48 h
Procedure: as §1, §2

[37] = tested on: MCF7/ADR-RES; test: as above; settings: Breast Cancer, 48 h
Procedure: as §1, §2

[38] = tested on: UACC-62; test: as above; settings: Melanoma, 48 h
Procedure: as §1, §2

[39] = tested on: human cancer cell lines; test: Growth inhibition across the human cancer cell line panel (overall statement); settings: wide range of human cancer cell lines, in words
Procedure: The growth inhibitory activities of bis(propargylic) sulfone crown ethers 2.47 and 2.48 against B16 murine melanoma cells were determined calorimetrically with an MTT assay conducted by the Institute for Drug Development at the Cancer Research and Therapy Center in San Antonio, Tex.
as §1, §2

Q: How did the pIC50 [1] turn out when O=S1(=O)CC#CCOCCOCCOCCOCCOCCOCC#CC1 [Compound 2.47] was run?
A: 4.85

Q: What about the pIC50 ([2]; Non-Small Cell Lung Cancer) of the same compound?
A: 4.69

Q: What about the pIC50 [3] of the same compound?
A: 4.86

Q: And the pIC50 [4]?
A: 4.70

Q: What about the pIC50 [5] of the same compound?
A: 4.95

Q: What about the pIC50 [6] of the same compound?
A: 5.00

Q: And the pIC50 [7]?
A: 5.43

Q: What about the pIC50 [8] of the same compound?
A: 4.39

Q: What about the pIC50 [9] of the same compound?
A: 5.09

Q: What about the pIC50 [10] of the same compound?
A: 4.77

Q: What about the pIC50 [11] of the same compound?
A: 4.82

Q: And the pIC50 [12]?
A: 4.80

Q: And the pIC50 [13]?
A: 4.98

Q: What about the pIC50 [14] of the same compound?
A: 4.70

Q: And the pIC50 [15]?
A: 4.91

Q: What about the pIC50 [16] of the same compound?
A: 4.96

Q: What about the pIC50 [17] of the same compound?
A: 4.79

Q: What about the pIC50 [18] of the same compound?
A: 4.73

Q: And the pIC50 [19]?
A: 4.79

Q: And the pIC50 [20]?
A: 5.09

Q: And the pIC50 [21]?
A: 4.82

Q: What about the pIC50 [22] of the same compound?
A: 4.76

Q: What about the pIC50 [23] of the same compound?
A: 4.87

Q: And the pIC50 [24]?
A: 4.70

Q: And the pIC50 [25]?
A: 4.96

Q: What about the pIC50 [26] of the same compound?
A: 4.44

Q: And the pIC50 ([27]; Colon Cancer)?
A: 4.86

Q: And the pIC50 [28]?
A: 4.66

Q: And the pIC50 [29]?
A: 4.87

Q: What about the pIC50 ([30]; CNS Cancer) of the same compound?
A: 4.77

Q: And the pIC50 [31]?
A: 4.88

Q: And the pIC50 [32]?
A: 4.77

Q: What about the pIC50 ([33]; Leukemia) of the same compound?
A: 4.95

Q: What about the pIC50 [34] of the same compound?
A: 4.48

Q: What about the pIC50 [35] of the same compound?
A: 4.81

Q: What about the pIC50 [36] of the same compound?
A: 5.14

Q: What about the pIC50 [37] of the same compound?
A: 4.59

Q: And the pIC50 [38]?
A: 6.55

Q: What about the “growth inhibitory properties against human cancer cell lines” value [39] of the same compound?
A: display growth inhibitory properties

Q: Which results are given for O=S1(=O)CC#CCOCCOCCOCCOCCOCCOCCOCC#CC1 [Compound 2.48]?
A: pIC50 [1]: 4.72; pIC50 ([2]; Non-Small Cell Lung Cancer): 4.21; pIC50 [3]: 4.64; pIC50 [4]: 4.49; pIC50 [5]: 4.70; pIC50 [6]: 4.66; pIC50 [7]: 4.70; pIC50 [8]: 4.28; pIC50 [9]: 4.72; pIC50 [10]: 4.74; pIC50 [11]: 4.68; pIC50 [12]: 4.71; pIC50 [13]: 4.84; pIC50 [14]: 4.63; pIC50 [15]: 4.67; pIC50 [16]: 4.74; pIC50 [17]: 4.76; pIC50 [18]: 4.36; pIC50 [19]: 4.68; pIC50 [20]: 4.82; pIC50 [21]: 4.57; pIC50 [22]: 4.49; pIC50 [23]: 4.65; pIC50 [24]: 4.56; pIC50 [25]: 4.71; pIC50 [26]: 4.49; pIC50 ([27]; Colon Cancer): 4.73; pIC50 [28]: 4.68; pIC50 [29]: 4.68; pIC50 ([30]; CNS Cancer): 4.74; pIC50 [31]: 4.73; pIC50 [32]: 4.74; pIC50 ([33]; Leukemia): 4.62; pIC50 [34]: < 4.00; pIC50 [35]: 4.49; pIC50 [36]: 4.83; pIC50 [37]: < 4.00; pIC50 [38]: 4.77; growth inhibitory properties against human cancer cell lines [39]: display growth inhibitory properties

Q: O=C(OCC1COCCOCCOCCOCCO1)c1ccc(CS(=O)(=O)CC#CCO)cc1 (stereo not drawn) [Compound 3.2] was tested. Which pIC50 ([1]; Homo sapiens) did it give?
A: 4.43

Q: What about the pIC50 ([2]; Homo sapiens, A549, Non-Small Cell Lung Cancer) of the same compound?
A: < 4.00

Q: And the pIC50 ([3]; Homo sapiens)?
A: < 4.00

Q: What about the pIC50 ([4]; Homo sapiens) of the same compound?
A: < 4.00

Q: What about the pIC50 ([5]; Homo sapiens) of the same compound?
A: 4.27

Q: What about the pIC50 ([6]; Homo sapiens) of the same compound?
A: < 4.00

Q: And the pIC50 ([7]; Homo sapiens)?
A: < 4.00

Q: What about the pIC50 ([8]; Homo sapiens) of the same compound?
A: 4.10

Q: And the pIC50 ([9]; Homo sapiens)?
A: < 4.00

Q: And the pIC50 ([10]; Homo sapiens)?
A: < 4.00

Q: And the pIC50 ([11]; Homo sapiens)?
A: < 4.00

Q: What about the pIC50 ([12]; Homo sapiens) of the same compound?
A: < 4.00

Q: What about the pIC50 ([13]; Homo sapiens) of the same compound?
A: 4.17

Q: And the pIC50 ([14]; Homo sapiens)?
A: < 4.00

Q: And the pIC50 ([15]; Homo sapiens)?
A: < 4.00

Q: And the pIC50 ([16]; Homo sapiens)?
A: 4.45

Q: And the pIC50 ([17]; Homo sapiens)?
A: 4.01

Q: What about the pIC50 ([18]; Homo sapiens) of the same compound?
A: < 4.00

Q: What about the pIC50 ([19]; Homo sapiens) of the same compound?
A: < 4.00

Q: And the pIC50 ([20]; Homo sapiens)?
A: < 4.00

Q: And the pIC50 ([21]; Homo sapiens)?
A: < 4.00

Q: And the pIC50 ([22]; Homo sapiens)?
A: 4.46

Q: And the pIC50 ([23]; Homo sapiens)?
A: < 4.00

Q: What about the pIC50 ([24]; Homo sapiens) of the same compound?
A: < 4.00

Q: What about the pIC50 ([25]; Homo sapiens) of the same compound?
A: 4.38

Q: What about the pIC50 ([26]; Homo sapiens) of the same compound?
A: < 4.00

Q: And the pIC50 ([27]; Homo sapiens, HT-29, Colon Cancer)?
A: < 4.00

Q: What about the pIC50 ([28]; Homo sapiens) of the same compound?
A: < 4.00

Q: What about the pIC50 ([29]; Homo sapiens) of the same compound?
A: < 4.00

Q: And the pIC50 ([30]; Homo sapiens, U-251, CNS Cancer)?
A: 4.16

Q: And the pIC50 ([31]; Homo sapiens)?
A: 4.52

Q: What about the pIC50 ([32]; Homo sapiens) of the same compound?
A: < 4.00

Q: What about the pIC50 ([33]; Homo sapiens, K562, Leukemia) of the same compound?
A: 4.43

Q: What about the pIC50 ([34]; Homo sapiens) of the same compound?
A: < 4.00

Q: And the pIC50 ([35]; Homo sapiens)?
A: < 4.00

Q: What about the pIC50 ([36]; Homo sapiens) of the same compound?
A: < 4.00

Q: What about the pIC50 ([37]; Homo sapiens) of the same compound?
A: < 4.00

Q: And the pIC50 ([38]; Homo sapiens)?
A: 4.08

Q: What about the “growth inhibitory properties against human cancer cell lines” value [39] of the same compound?
A: modest growth inhibitory properties
